Results taken from paper PMC7736581, “Activation of the IRE1 RNase through remodeling of the kinase front pocket by ATP-competitive ligands” (Nature Communications, 2020).

Columns and labels:
Assay in all cases: biochemical
Set-up in all cases: Invitrogen kinase panel: Z'Lyte activity (ATP at Km) or LanthaScreen competitive ATP-site binding, percent inhibition
[1] = molecular target: WEE1 (Homo sapiens, UniProt P30291)
[2] = molecular target: T1, IRR (Homo sapiens, UniProt P14616)
T1 construct: gene INSRR

[3] = molecular target: T2, PKC_delta (Homo sapiens, UniProt Q05655)
T2 construct: gene PRKCD

[4] = molecular target: T3, CK1_delta (Homo sapiens, UniProt P48730)
T3 construct: gene CSNK1D

[5] = molecular target: NEK9 (Homo sapiens, UniProt Q8TD19)
[6] = molecular target: T4, MST1 (Homo sapiens, UniProt Q13043)
T4 construct: gene STK4
T4 sequence (Q13043 whole entry): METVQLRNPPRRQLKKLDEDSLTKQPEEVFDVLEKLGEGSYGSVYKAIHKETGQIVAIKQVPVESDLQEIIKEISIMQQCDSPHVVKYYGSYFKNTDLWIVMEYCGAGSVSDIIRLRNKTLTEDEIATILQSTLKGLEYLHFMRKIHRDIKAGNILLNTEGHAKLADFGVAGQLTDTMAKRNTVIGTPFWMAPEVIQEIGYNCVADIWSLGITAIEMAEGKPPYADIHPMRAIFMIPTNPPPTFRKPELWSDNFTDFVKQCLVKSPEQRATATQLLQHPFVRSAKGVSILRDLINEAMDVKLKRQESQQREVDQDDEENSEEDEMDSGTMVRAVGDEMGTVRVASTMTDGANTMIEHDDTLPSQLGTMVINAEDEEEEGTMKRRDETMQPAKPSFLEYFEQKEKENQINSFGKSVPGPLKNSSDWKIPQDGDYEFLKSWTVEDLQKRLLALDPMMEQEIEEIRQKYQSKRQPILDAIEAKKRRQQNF

[7] = molecular target: MAPKAPK3 (Homo sapiens, UniProt Q16644)
[8] = molecular target: ACVR1B (Homo sapiens, UniProt P36896)
[9] = molecular target: ACVR2B (Homo sapiens, UniProt Q13705)
[10] = molecular target: PLK3 (Homo sapiens, UniProt Q9H4B4)
[11] = molecular target: JAK3 (Homo sapiens, UniProt P52333)
[12] = molecular target: SIK2 (Homo sapiens, UniProt Q9H0K1)
[13] = molecular target: CLK4 (Homo sapiens, UniProt Q9HAZ1)
CLK4, sequence (Q9HAZ1 whole entry): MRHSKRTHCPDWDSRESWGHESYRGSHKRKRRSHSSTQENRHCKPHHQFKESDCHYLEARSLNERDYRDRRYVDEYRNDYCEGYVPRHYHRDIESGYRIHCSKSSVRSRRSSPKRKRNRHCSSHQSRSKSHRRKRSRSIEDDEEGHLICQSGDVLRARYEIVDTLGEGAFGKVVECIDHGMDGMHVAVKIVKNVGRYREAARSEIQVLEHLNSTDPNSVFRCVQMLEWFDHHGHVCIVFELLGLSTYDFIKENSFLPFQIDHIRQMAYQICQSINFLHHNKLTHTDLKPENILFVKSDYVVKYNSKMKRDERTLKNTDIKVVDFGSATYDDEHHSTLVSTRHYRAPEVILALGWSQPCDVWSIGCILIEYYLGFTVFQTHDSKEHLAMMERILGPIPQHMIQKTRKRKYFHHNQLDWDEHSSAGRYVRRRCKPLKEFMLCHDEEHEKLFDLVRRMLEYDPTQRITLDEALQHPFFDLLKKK

[14] = molecular target: MKNK1 (Homo sapiens, UniProt Q9BUB5)
MKNK1, sequence (Q9BUB5 whole entry): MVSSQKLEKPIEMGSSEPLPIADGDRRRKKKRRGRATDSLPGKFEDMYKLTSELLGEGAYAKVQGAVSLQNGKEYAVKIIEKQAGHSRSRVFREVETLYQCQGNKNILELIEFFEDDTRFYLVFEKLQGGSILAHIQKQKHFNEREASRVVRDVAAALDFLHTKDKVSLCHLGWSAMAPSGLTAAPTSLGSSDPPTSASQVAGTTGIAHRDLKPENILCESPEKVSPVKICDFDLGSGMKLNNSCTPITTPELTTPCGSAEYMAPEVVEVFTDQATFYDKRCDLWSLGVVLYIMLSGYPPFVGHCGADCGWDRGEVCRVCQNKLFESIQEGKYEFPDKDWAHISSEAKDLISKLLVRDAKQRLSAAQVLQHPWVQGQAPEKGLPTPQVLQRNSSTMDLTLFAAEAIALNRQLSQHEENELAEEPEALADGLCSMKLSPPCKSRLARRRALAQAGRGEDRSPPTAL

[15] = molecular target: T5, Rsk3 (Homo sapiens, UniProt Q15349)
T5 construct: gene RPS6KA2

[16] = molecular target: T6, JNK3 (Homo sapiens, UniProt P53779)
T6 construct: gene MAPK10

[17] = molecular target: FGFR3 (Homo sapiens, UniProt P22607)
FGFR3, sequence (P22607 whole entry): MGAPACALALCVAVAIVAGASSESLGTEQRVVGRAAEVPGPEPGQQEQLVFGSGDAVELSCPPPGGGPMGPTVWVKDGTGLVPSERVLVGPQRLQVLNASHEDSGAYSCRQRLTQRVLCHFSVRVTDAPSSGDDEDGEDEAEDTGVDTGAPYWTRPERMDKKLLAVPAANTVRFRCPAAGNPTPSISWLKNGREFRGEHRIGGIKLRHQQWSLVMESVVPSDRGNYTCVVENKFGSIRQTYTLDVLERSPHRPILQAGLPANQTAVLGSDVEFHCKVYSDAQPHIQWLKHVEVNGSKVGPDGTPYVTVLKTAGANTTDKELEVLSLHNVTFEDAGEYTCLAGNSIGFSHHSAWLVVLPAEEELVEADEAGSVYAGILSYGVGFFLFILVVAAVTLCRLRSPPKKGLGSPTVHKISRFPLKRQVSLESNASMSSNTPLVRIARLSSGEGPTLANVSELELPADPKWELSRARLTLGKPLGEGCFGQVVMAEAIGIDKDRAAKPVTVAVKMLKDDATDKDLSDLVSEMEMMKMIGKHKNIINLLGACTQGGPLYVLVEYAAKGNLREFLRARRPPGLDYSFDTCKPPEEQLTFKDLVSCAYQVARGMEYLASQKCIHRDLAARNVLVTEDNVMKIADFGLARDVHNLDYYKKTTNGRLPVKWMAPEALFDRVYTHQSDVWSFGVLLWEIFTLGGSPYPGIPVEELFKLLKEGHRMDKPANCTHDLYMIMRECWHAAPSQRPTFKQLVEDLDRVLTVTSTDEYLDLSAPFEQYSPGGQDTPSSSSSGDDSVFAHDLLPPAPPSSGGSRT

[18] = molecular target: MAPKAPK2 (Homo sapiens, UniProt P49137)
MAPKAPK2, sequence (P49137 whole entry): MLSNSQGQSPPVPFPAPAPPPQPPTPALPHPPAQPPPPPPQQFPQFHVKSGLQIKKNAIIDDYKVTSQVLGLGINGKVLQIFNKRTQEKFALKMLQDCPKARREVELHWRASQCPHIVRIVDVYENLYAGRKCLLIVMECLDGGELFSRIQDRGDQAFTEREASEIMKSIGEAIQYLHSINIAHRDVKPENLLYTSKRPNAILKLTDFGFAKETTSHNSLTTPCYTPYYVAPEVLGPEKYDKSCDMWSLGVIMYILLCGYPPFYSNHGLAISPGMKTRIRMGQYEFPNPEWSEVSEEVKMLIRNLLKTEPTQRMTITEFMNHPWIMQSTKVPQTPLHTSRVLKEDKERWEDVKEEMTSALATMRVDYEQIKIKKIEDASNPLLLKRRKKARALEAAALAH

[19] = molecular target: EGFR(T790M,L858R) (Homo sapiens, UniProt P00533, L858R/T790M)
[20] = molecular target: PIM1 (Homo sapiens, UniProt P11309)
[21] = molecular target: PASK (Homo sapiens, UniProt Q96RG2)
[22] = molecular target: Kit (Homo sapiens, UniProt P10721)
Kit, sequence (P10721 whole entry): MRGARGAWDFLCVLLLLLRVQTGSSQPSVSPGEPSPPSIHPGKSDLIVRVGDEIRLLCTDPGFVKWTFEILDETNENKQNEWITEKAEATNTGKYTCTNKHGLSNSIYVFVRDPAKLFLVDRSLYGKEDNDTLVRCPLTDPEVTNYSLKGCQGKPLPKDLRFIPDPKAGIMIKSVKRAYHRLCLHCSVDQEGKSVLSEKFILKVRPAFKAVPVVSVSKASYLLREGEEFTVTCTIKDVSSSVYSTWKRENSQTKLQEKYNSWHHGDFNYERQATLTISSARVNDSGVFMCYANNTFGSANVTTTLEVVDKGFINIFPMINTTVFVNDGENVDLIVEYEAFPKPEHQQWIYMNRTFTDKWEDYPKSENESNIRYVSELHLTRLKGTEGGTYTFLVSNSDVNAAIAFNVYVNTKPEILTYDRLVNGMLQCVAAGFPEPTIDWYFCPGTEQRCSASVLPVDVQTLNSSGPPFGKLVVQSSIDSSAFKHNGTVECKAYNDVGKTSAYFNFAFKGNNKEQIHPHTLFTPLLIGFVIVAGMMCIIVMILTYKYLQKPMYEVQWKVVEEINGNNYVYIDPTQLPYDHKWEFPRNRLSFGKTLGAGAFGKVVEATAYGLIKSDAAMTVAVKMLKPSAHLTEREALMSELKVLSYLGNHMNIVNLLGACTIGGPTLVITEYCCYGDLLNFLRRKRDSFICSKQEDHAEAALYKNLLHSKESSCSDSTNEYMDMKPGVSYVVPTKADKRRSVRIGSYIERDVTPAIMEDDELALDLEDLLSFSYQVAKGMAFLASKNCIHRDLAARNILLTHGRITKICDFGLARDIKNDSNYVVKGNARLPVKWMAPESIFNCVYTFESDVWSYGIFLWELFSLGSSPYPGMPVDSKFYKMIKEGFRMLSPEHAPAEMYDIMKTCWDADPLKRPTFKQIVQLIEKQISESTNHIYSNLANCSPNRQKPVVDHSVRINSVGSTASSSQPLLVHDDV

[23] = molecular target: T7, p38_delta (Homo sapiens, UniProt O15264)
T7 construct: gene MAPK13

[24] = molecular target: Flt1 (Homo sapiens, UniProt P17948)
Flt1, sequence (P17948 whole entry): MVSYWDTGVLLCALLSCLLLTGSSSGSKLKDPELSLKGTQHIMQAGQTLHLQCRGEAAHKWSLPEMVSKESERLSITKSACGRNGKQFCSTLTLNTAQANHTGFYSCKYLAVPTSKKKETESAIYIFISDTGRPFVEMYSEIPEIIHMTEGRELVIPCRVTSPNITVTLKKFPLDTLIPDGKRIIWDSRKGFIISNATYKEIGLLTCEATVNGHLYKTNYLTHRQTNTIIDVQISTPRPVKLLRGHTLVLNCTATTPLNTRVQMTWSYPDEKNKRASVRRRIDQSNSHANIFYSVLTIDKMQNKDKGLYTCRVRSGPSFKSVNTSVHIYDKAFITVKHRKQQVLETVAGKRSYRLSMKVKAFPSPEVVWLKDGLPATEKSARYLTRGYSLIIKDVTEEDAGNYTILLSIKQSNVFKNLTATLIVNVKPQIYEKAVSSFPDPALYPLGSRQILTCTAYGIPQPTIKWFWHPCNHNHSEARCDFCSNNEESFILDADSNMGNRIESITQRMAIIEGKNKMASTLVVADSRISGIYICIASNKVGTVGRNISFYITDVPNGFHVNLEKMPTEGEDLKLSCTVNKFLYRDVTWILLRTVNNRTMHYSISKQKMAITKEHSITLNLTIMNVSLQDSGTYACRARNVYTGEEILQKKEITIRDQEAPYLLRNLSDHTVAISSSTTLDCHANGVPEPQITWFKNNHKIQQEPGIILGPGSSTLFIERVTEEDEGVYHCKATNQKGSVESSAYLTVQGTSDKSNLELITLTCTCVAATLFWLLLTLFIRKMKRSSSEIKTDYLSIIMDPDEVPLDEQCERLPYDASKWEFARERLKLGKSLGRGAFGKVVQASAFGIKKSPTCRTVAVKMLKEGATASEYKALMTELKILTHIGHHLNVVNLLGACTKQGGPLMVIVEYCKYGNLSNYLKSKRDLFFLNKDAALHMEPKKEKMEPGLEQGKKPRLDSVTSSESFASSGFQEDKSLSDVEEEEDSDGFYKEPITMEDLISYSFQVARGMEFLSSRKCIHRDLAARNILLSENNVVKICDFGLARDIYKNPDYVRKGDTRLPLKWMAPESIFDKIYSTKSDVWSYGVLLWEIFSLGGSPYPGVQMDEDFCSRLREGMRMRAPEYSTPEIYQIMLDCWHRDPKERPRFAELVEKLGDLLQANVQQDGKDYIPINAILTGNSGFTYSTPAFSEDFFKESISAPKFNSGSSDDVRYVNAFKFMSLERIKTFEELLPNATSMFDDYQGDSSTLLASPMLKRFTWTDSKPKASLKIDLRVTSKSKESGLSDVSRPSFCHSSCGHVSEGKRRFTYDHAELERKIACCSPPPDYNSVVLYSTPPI

[25] = molecular target: STK16 (Homo sapiens, UniProt O75716)

Row | Structure (SMILES) | inhibition at 1 µM [1] [%] | inhibition at 1 µM [2] [%] | inhibition at 1 µM [3] [%] | inhibition at 1 µM [4] [%] | inhibition at 1 µM [5] [%] | inhibition at 1 µM [6] [%] | inhibition at 1 µM [7] [%] | inhibition at 1 µM [8] [%] | inhibition at 1 µM [9] [%] | inhibition at 1 µM [10] [%] | inhibition at 1 µM [11] [%] | inhibition at 1 µM [12] [%] | inhibition at 1 µM [13] [%] | inhibition at 1 µM [14] [%] | inhibition at 1 µM [15] [%] | inhibition at 1 µM [16] [%] | inhibition at 1 µM [17] [%] | inhibition at 1 µM [18] [%] | inhibition at 1 µM [19] [%] | inhibition at 1 µM [20] [%] | also measured
1 | CCOC(=O)Nc1cccc2c(Oc3ncccc3-c3ccnc(N[C@H]4CCCNC4)n3)c(C)ccc12 [G-1749] | -5 | -0.5 | 12 | 3 | -3 | 1 | 12.5 | 3 | 18.5 | -5 | -15.5 | -16.5 | 10.5 | 1.5 | 10 | 52.5 | -6 | 7.5 | 2.5 | -5.5 | inhibition at 1 µM [21]: 4.5%; inhibition at 1 µM [22]: 0%; inhibition at 1 µM [23]: 11.5%; inhibition at 1 µM [24]: -1%; inhibition at 1 µM [25]: -5.5%
2 | CC#CC(=O)Nc1cccc2c(Oc3ncccc3-c3ccnc(N[C@H]4CCCNC4)n3)c(C)ccc12 [G-7658] | -0.5 | 0 | 15 | 5.5 | -0.5 | -0.5 | 8 | -0.5 | 8.5 | -2.5 | -15 | 6 | 6 | -1 | 9 | 51.5 | -5 | 1 | 4 | -6 | inhibition at 1 µM [21]: 9.5%; inhibition at 1 µM [22]: -0.5%; inhibition at 1 µM [23]: 13.5%; inhibition at 1 µM [24]: -1.5%; inhibition at 1 µM [25]: -9%
